Tests used:
[1] = tested on: Aptamer 21; assay: Biotin-photoaffinity probe cross-linking and streptavidin bead pull-down gel assay; assay type: binding; conditions: Aptamer 21 compared with Aptamer 21-E
[2] = tested on: Aptamer 21; assay: Capture of Aptamer 21 from a defined mixture of RNAs; assay type: binding
Protocol: A sample of folded RNA was prepared containing 1 μM each of Myc HP PA, Aptamer 21, FMN, MYC_3WJ-HP_N3G, and PreQ1 RNAs in folding buffer (20 mM TrisHCl pH 8, 100 mM KCl, 3 mM MgCl2). A 95 μL sample of this solution was added to a 5 μL aliquot of 0.2 mM ARK-670 (probe) or ARK-139 (control) in DMSO. The reaction was incubated for 30 min at 37° C., irradiated with long wave UV light (˜365 nm) for 30 min in a UV crosslinker (Fisher Scientific), and then cooled on ice. The excess probe and buffer was then removed by passing the sample through an Illustra MicroSpin G-25 spin column (GE Healthcare) according to the manufacturer's protocol.
For each treatment, a 75 μL aliquot of the crosslinked RNA was mixed with 0.75 μL of 10% Tween-20 and 0.45 μL of 0.5 M EDTA pH 8 solution. A 50 μL aliquot of MyOne Streptavidin C1 Dynabead slurry (Thermo) was captured on a magnet, washed twice with 50 μL of 1× bind/wash buffer (20 mM TrisHCl pH 7, 100 mM KCl, 0.1% Tween-20), and then resuspended in 50 μL of the crosslinked RNA sample. The bead suspension was rotated at room temperature for 60 min and then washed twice with 100 μL of 1× bind/wash solution. […]
To remove excess primer, the sample was mixed with 4.5 μL of ExoSAP-IT, incubated at 37° C. for 15 min, and then quenched with 1 μL of 0.5 M EDTA pH 8. […] The concentration was determined by absorbance at 260 nm. […]

COC(=O)C1=C(COCc2cn(CCOCCOCCNC(=O)[C@H](CCCCNC(=O)c3ccc(N=[N+]=[N-])cc3)NC(=O)CCCC[C@@H]3SC[C@@H]4NC(=O)N[C@@H]43)nn2)NC(c2ccncc2)=NC1c1ccc(F)cc1Cl (stereo partly drawn) [ARK-670]
pull-down of RNA on streptavidin beads after cross-linking [1]: Only the Aptamer 21 RNA showed significant pull-down
RT pausing signal from probe adducts ([2]; Aptamer 21, Aptamer 21-E, or mixture of Aptamer 21 and four other RNAs): specific for Aptamer 21
enrichment of RNAs after cross-linking, avidin bead enrichment and sequencing ([2]; mixture of Aptamer 21 and four other RNAs): only Aptamer 21 was enriched
